In patent US5342947A, “Preparation of water soluble camptothecin derivatives” (Glaxo Inc., priority 1992, dated 1994):
Read-outs that look alike come from different tables or passages of the source.

Assays:
topoisomerase Type I = target: T1, topoisomerase Type I (Bos taurus, UniProt F1MN93); experiment: Cleavable Complex in vitro Assay (topoisomerase Type I inhibitory activity); format: biochemical
T1 sequence (F1MN93 1-767): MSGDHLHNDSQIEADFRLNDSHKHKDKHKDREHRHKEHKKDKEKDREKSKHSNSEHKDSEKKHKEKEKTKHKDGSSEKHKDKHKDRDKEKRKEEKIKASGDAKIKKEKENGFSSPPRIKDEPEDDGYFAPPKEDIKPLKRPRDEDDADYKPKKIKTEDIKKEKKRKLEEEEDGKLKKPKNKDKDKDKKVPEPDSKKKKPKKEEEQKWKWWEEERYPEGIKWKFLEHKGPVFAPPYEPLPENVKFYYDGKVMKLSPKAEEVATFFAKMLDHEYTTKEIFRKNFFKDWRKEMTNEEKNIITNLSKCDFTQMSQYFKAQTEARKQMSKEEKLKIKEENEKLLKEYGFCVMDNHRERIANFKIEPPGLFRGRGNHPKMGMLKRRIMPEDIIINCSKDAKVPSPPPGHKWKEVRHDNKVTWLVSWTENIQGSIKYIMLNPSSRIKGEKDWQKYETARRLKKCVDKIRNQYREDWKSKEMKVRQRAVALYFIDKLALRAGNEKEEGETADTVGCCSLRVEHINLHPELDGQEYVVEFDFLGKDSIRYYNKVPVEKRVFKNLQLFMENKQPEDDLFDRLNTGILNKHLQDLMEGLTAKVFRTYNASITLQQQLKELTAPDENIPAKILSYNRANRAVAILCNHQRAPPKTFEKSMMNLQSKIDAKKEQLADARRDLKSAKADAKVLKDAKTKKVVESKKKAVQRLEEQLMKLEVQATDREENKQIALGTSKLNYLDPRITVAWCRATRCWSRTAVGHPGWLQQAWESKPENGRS
From the text: This assay performed according to the method described in Hsiang, Y. et al., J. Biol. Chem., 260:14873-14878 (1985), correlates well with in vivo anti-tumor activity of topoisomerase inhibitors in animal models of cancer, e.g., camptothecin and its analogs. See Hsiang et al., Cancer Research, 49:4385-4389 (1989) and Jaxel et al., Cancer Research, 49:1465-1469 (1989).
The term "IC50 " means the concentration of a compound of formula (I) at which 50% of the DNA substrate has been captured by topoisomerase I.

HT-29 human colon tumor = experiment: Human Colorectal Adenocarcinoma HT-29 Xenograft in vivo Assay; design: species or system human tumor xenograft in female NU/NU mice; conditions: for tumor wt day 50 / tumor wt day 14: s.c. twice a week for 5 weeks; for effect on tumor (stasis / regression): after 5 weeks of dosing, day 50 vs day 14, ratio 1 = stasis, <1 = regression
Experimental: Female NU/NU mice weighing 21±2 g, are used for this modified version of the test described by B. C. Giovanella, et al., Science, 246 1046 (1989). Control and test animals are injected subcutaneously in the sub-scapular region with a suspension of 10^6 viable HT-29 human colon tumor cells on day 0. Tumors are allowed to grow for 2 weeks prior to drug administration. For each drug, several doses are chosen based on its in vitro activity against topoisomerase I. Each dose level group contains 8 animals. The test compounds are prepared in either 0.1M acetate buffer, pH 5 (vehicle "a") or 87.5% phosphate buffered saline, 12.375% dimethylsulfoxide, and 0.125% Tween 80 (trademark of ICI America for polyoxyethylenesorbitan monooleate) (vehicle "b") and are administered subcutaneously twice a week for 5 weeks beginning on day 14. Doses are given on a mg/kg basis according to the mean body weight for each cage.
Tumor weight is calculated from two perpendicular caliper measurements of the tumor using the formula, tumor weight=length×width^2 […] in millimeters. For each animal, tumor weight is monitored over the course of the experiment. For each group, the results are expressed as the ratio of the mean tumor weight immediately after 5 weeks of treatment (day 50) divided by the mean tumor weight immediately before treatment (day 14). […] The criterion for antitumor activity is at least 50% inhibition of tumor growth after 5 weeks of dosing (day 50), giving a ratio of less than or equal to […].

leukemia (L-1210) = conditions: laboratory animals; cited from earlier work
certain solid tumors = conditions: laboratory animals; cited from earlier work
[1] = Wani et al., J. Med. Chem. 29, 2358 (1986) and 30, 2317 (1987); cited from earlier work
[2] = in words, background; cited from earlier work
[3] = Cleavable Complex Assay, read-out: Relative IC50 (concentration at which 50% of the DNA substrate has been captured by topoisomerase I)

CCC1(O)C(=O)OCc2c1cc1n(c2=O)Cc2c-1nc1cc3c(cc1c2CN1CCCCC1)OCO3 (racemic) [Example 8, 7-Piperidinomethylene-10,11-methylenedioxy-20(R,S)-camptothecin]
IC50 (topoisomerase Type I): > 2000 nM

CC[C@@]1(O)C(=O)OCc2c1cc1n(c2=O)Cc2c-1nc1cc3c(cc1c2CN1CCC1)OCCO3 [Example 22, 7-Azetidinomethylene-10, 11-ethylenedioxy-20(S)-camptothecin]
tumor wt day 50 / tumor wt day 14 (HT-29 human colon tumor; 12.0 mg/kg (optimal dose), vehicle a (0.1M acetate buffer, pH 5), vehicle control 20.0): 1.6

CC[C@@]1(O)C(=O)OCc2c1cc1n(c2=O)Cc2c-1nc1cc3c(cc1c2CN1CCN(C)CC1)OCO3 [Example 23, 7-(4-Methylpiperazinomethylene)-10, 11-methylenedioxy-20(S)-camptothecin]
tumor wt day 50 / tumor wt day 14 (HT-29 human colon tumor; 3.0 mg/kg (optimal dose), vehicle a (0.1M acetate buffer, pH 5), vehicle control 20.0): 0.5 | effect on tumor (stasis / regression) (HT-29 human colon tumor): tumor regression

CC[C@@]1(O)C(=O)OCc2c1cc1n(c2=O)Cc2c-1nc1cc3c(cc1c2CN1CCC1)OCO3 [Example 20, 7-Azetidinomethylene-10, 11-methylenedioxy-20(S)-camptothecin]
tumor wt day 50 / tumor wt day 14 (HT-29 human colon tumor; 1.5 mg/kg (optimal dose), vehicle a (0.1M acetate buffer, pH 5), vehicle control 20.0): 1.5

CCN(CC)Cc1c2c(nc3cc4c(cc13)OCCO4)-c1cc3c(c(=O)n1C2)COC(=O)[C@]3(O)CC [Example 14, 7-Diethylaminomethylene-10, 11-ethylenedioxy-20(S)-camptothecin]
tumor wt day 50 / tumor wt day 14 (HT-29 human colon tumor; 2.0 mg/kg (optimal dose), vehicle a (0.1M acetate buffer, pH 5), vehicle control 20.0): 2.0

CCC1(O)C(=O)OCc2c1cc1n(c2=O)Cc2c-1nc1cc3c(cc1c2CN1CCC1)OCO3 (racemic) [Example 19, 7-Azetidinomethylene-10, 11-methylenedioxy-20(R,S)-camptothecin]
IC50 (topoisomerase Type I): 1000 to 2000 nM

CCC1(O)C(=O)OCc2c1cc1n(c2=O)Cc2c-1nc1cc3c(cc1c2CN1CCCC1)OCCO3 (racemic) [Example 7, 7-Pyrrolidinomethylene-10,11-ethylenedioxy-20(R,S)-camptothecin]
IC50 (topoisomerase Type I): 1000 to 2000 nM

CC[C@@]1(O)C(=O)OCc2c1cc1n(c2=O)Cc2c-1nc1cc3c(cc1c2CN(C)C)OCO3 [Example 2, 7-Dimethylaminomethylene-10, 11-methylenedioxy-20(S)-camptothecin]
IC50 (topoisomerase Type I): < 500 nM | tumor wt day 50 / tumor wt day 14 (HT-29 human colon tumor; 0.8 mg/kg (optimal dose), vehicle b (PBS/DMSO/Tween 80), vehicle control 21.8): 1.8

CCC1(O)C(=O)OCc2c1cc1n(c2=O)Cc2c-1nc1cc3c(cc1c2CN1CCOCC1)OCCO3 (racemic) [Example 5, 7-Morpholinomethylene-10,11-ethylenedioxy-20(R,S)-camptothecin]
IC50 (topoisomerase Type I): < 500 nM

CCC1(O)C(=O)OCc2c1cc1n(c2=O)Cc2c-1nc1cc3c(cc1c2CN(C)CCO)OCCO3 (racemic) [Example 16, 7-N-Methylethanolaminomethylene-10, 11-ethylenedioxy-20(R,S)-camptothecin]
IC50 (topoisomerase Type I): 1000 to 2000 nM

CCC1(O)C(=O)OCc2c1cc1n(c2=O)Cc2c-1nc1cc3c(cc1c2CN1CCCCC1)OCCO3 (racemic) [Example 9, 7-Piperidinomethylene-10, 11-ethylenedioxy-20(R,S)-camptothecin]
IC50 (topoisomerase Type I): 500 to 1000 nM

CCN(CC)Cc1c2c(nc3cc4c(cc13)OCCO4)-c1cc3c(c(=O)n1C2)COC(=O)C3(O)CC (racemic) [Example 13, 7-Diethylaminomethylene-10, 11-ethylenedioxy-20(R,S)-camptothecin]
IC50 (topoisomerase Type I): 500 to 1000 nM

CCC1(O)C(=O)OCc2c1cc1n(c2=O)Cc2c-1nc1cc3c(cc1c2CN(C)C)OCO3 (racemic) [Example 1]
IC50 (topoisomerase Type I; read-out: Relative IC50 (concentration at which 50% of the DNA substrate has been captured by topoisomerase I), Cleavable Complex Assay): < 500 nM

CC[C@@]1(O)C(=O)OCc2c1cc1n(c2=O)Cc2c-1nc1cc3c(cc1c2CN(C)C)OCCO3 [Example 4, 7-Dimethylaminomethylene-10, 11-ethylenedioxy-20(S)-camptothecin]
IC50 (topoisomerase Type I): 500 to 1000 nM | tumor wt day 50 / tumor wt day 14 (HT-29 human colon tumor; 7.0 mg/kg (optimal dose), vehicle a (0.1M acetate buffer, pH 5), vehicle control 20.0): 1.3 | tumor wt day 50 / tumor wt day 14 (HT-29 human colon tumor; 7.0 mg/kg (optimal dose), vehicle b (PBS/DMSO/Tween 80), vehicle control 21.8): 1.0 | effect on tumor (stasis / regression) (HT-29 human colon tumor): tumor stasis

CC[C@@]1(O)C(=O)OCc2c1cc1n(c2=O)Cc2cc3ccccc3nc2-1 [camptothecin, Camptothecin]
effectiveness in treatment of leukemia (L-1210) (leukemia (L-1210)): effective | effectiveness in treatment of certain solid tumors (certain solid tumors): effective

CCC1(O)C(=O)OCc2c1cc1n(c2=O)Cc2cc3cc4c(cc3nc2-1)OCO4 (centres unmarked) [10, 11-methylenedioxycamptothecin]
potency relative to unsubstituted camptothecin [1]: more potent than unsubstituted camptothecin | solubility in water / physiologically compatible, aqueous media [2]: as poor as camptothecin

CC[C@@]1(O)C(=O)OCc2c1cc1n(c2=O)Cc2c-1nc1cc3c(cc1c2CN1CCOCC1)OCCO3 [Example 6, 7-Morpholinomethylene-10,11-ethylenedioxy-20(S)-camptothecin]
IC50 (topoisomerase Type I): < 500 nM | tumor wt day 50 / tumor wt day 14 (HT-29 human colon tumor; 1.0 mg/kg (optimal dose), vehicle b (PBS/DMSO/Tween 80), vehicle control 21.8): 1.0 | effect on tumor (stasis / regression) (HT-29 human colon tumor): tumor stasis

CCC1(O)C(=O)OCc2c1cc1n(c2=O)Cc2c-1nc1cc3c(cc1c2CN(CCO)CCO)OCCO3 (racemic) [Example 17, 7-Diethanolaminomethylene-10, 11-ethylenedioxy-20(R,S)-camptothecin]
IC50 (topoisomerase Type I): < 500 nM

CC[C@@]1(O)C(=O)OCc2c1cc1n(c2=O)Cc2c-1nc1cc3c(cc1c2CN1CCN(C)CC1)OCCO3 [Example 11, 7-(4-methylpiperazinomethylene)-10, 11-ethylenedioxy-20(S)-camptothecin]
IC50 (topoisomerase Type I; [3]): < 500 nM | tumor wt day 50 / tumor wt day 14 (HT-29 human colon tumor; 9.0 mg/kg (optimal dose), vehicle a (0.1M acetate buffer, pH 5), vehicle control 20.0): 0.6 | effect on tumor (stasis / regression) (HT-29 human colon tumor): tumor regression

CCC1(O)C(=O)OCc2c1cc1n(c2=O)Cc2c-1nc1cc3c(cc1c2CN(C)CCO)OCO3 (racemic) [Example 15, 7-N-Methylethanolaminomethylene-10, 11-methylenedioxy-20(R,S)-camptothecin]
IC50 (topoisomerase Type I): 1000 to 2000 nM

CCC1(O)C(=O)OCc2c1cc1n(c2=O)Cc2c-1nc1cc3c(cc1c2CN1CCN(C)CC1)OCCO3 (racemic) [Example 10, 7-(4-methylpiperazinomethylene)-10, 11-ethylenedioxy-20(R,S)-camptothecin]
IC50 (topoisomerase Type I; [3]): 500 to 1000 nM
